Like-named read-outs stand apart in the source and are kept apart here.
Tested on: P. falciparum (NF54 or 3D7 strain)
Test: Assay for P. falciparum proliferation in infected human blood cells (SYBR Green)
Assay type: cell-based, Plasmodium falciparum
Details: Plasmodium falciparum
Procedure, shortened: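 Infected erythrocytes (NF54 or 3D7; final 2.5% hematocrit, 0.3% parasitemia) were incubated with compounds for 72 h at 37 °C in low oxygen (3% O2, 4% CO2, 93% N2).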

[1] = Erythrocyte, 72 h, NF54 or 3D7 infected human erythrocytes, 72 hours, read-out: EC50 (nM), inhibitory efficacy in delaying P. falciparum proliferation in infected human blood cells
[2] = Erythrocyte, infected human red blood cells, read-out: EC50, P. falciparum Proliferation Assay

`CN(C(=O)c1cn2c(-c3ccc(C(F)F)cc3)cnc2cn1)c1ccc(Cl)nc1` [Compound 265, N-(6-chloropyridin-3-yl)-3-[4-(difluoromethyl)phenyl]-N-methylimidazo[1,2-a]pyrazine-6-carboxamide] was tested, and the EC50 [1] was 318 nM.
Compound `COc1ccc(-c2cnc3cnc(C(=O)N(C)c4ccc(C#N)cc4)cn23)cc1C` [Compound 30, N-(4-cyanophenyl)-3-(4-methoxy-3-methylphenyl)-N-methylimidazo[1,2-a]pyrazine-6-carboxamide] has an EC50 [1] of 2510 nM.
`O=C(Nc1ccc(S(=O)(=O)Nc2nccs2)cc1)c1cn2c(-c3ccc(C(F)(F)F)cc3)cnc2cn1` [Compound 406, N-{4-[(1,3-thiazol-2-yl)sulfamoyl]phenyl}-3-[4-(trifluoromethyl)phenyl]imidazo[1,2-a]pyrazine-6-carboxamide] gave an EC50 [1] greater than 8860 nM.
`COc1ccc(-c2cnc3cnc(CN(C)c4ccc(C)cn4)cn23)cn1` [Compound 338] showed an EC50 (3D7|NF54, Erythrocyte, in Homo sapiens, 72 h, NF54 or 3D7 infected human erythrocytes, 72 hours, read-out: EC50 (nM), inhibitory efficacy in delaying P. falciparum proliferation in infected human blood cells) of 4080 nM.
With `CN(C(=O)c1cn2c(-c3ccc4[nH]ncc4c3)cnc2cn1)c1ccc(Cl)nc1` [Compound 349, N-(6-chloropyridin-3-yl)-3-(1H-indazol-5-yl)-N-methylimidazo[1,2-a]pyrazine-6-carboxamide] the EC50 [1] was 4680 nM.
`CN(Cc1cn2c(-c3ccc(-c4nnc(N)s4)cc3)cnc2cn1)c1ccc(C#N)cc1` [Compound 25, 4-[({3-[4-(5-amino-1,3,4-thiadiazol-2-yl)phenyl]imidazo[1,2-a]pyrazin-6-yl}methyl)(methyl)amino]benzonitrile] was tested, and the EC50 [1] was 6 nM and the EC50 [2] was less than 50 nM.
Compound `CN(C(=O)c1cn2c(-c3ccc(C(N)=O)cc3)cnc2cn1)c1ccc(C#N)cc1` [Compound 104, 3-(4-carbamoylphenyl)-N-(4-cyanophenyl)-N-methylimidazo[1,2-a]pyrazine-6-carboxamide] has an EC50 [1] of 57 nM.
Work on `CN(C(=O)c1cn2c(-c3ccc(OC(F)(F)F)cc3)cnc2cn1)c1ccc(C#N)cc1` [Compound 116, -(4-cyanophenyl)-N-methyl-3-[4-(trifluoromethoxy)phenyl]imidazo[1,2-a]pyrazine-6-carboxamide] yielded an EC50 [1] of 230 nM.
For `CC(C)c1nc(-c2cnc3cnc(C(=O)N(C)c4ccc(Cl)nc4)cn23)cs1` [Compound 364, N-(6-chloropyridin-3-yl)-N-methyl-3-[2-(propan-2-yl)-1,3-thiazol-4-yl]imidazo[1,2-a]pyrazine-6-carboxamide], the EC50 [1] was 8240 nM.
Work on `CN(C(=O)c1cn2c(-c3ccc(C(F)(F)F)cc3)cnc2cn1)c1ccc(Cl)cc1` [Compound 217, N-(4-chlorophenyl)-N-methyl-3-[4-(trifluoromethyl)phenyl]imidazo[1,2-a]pyrazine-6-carboxamide] yielded an EC50 [1] of 36 nM.
With `Cc1cccc(CN(C)C(=O)c2cn3c(-c4ccc(C(F)(F)F)cc4)cnc3cn2)n1` [Compound 190, N-methyl-N-[(6-methylpyridin-2-yl)methyl]-3-[4-(trifluoromethyl)phenyl]imidazo[1,2-a]pyrazine-6-carboxamide] the EC50 [1] was 6240 nM.
`CN(C(=O)c1cn2c(-c3ccc4nonc4c3)cnc2cn1)c1ccc(C#N)cc1` [Compound 202, 3-(2,1,3-benzoxadiazol-5-yl)-N-(4-cyanophenyl)-N-methylimidazo[1,2-a]pyrazine-6-carboxamide] showed an EC50 [1] greater than 10000 nM.
Compound `CC(C)Oc1ccc(-c2cnc3cnc(C(=O)N(C)c4ccc(C#N)cc4)cn23)cc1` [Compound 162, N-(4-cyanophenyl)-N-methyl-3-[4-(propan-2-yloxy)phenyl]imidazo[1,2-a]pyrazine-6-carboxamide] has an EC50 [1] of 318 nM.
`CN(C)CCN(C(=O)c1cn2c(-c3ccc(C(F)(F)F)cc3)cnc2cn1)c1ccc(C#N)cc1` [Compound 72, N-(4-cyanophenyl)-N-[2-(dimethylamino)ethyl]-3-[4-(trifluoromethyl)phenyl]imidazo[1,2-a]pyrazine-6-carboxamide] showed an EC50 [1] of 439 nM and an EC50 [2] of less than 50 nM.
`CN(C(=O)c1cn2c(-c3ccc(Cl)cc3)cnc2cn1)c1ccc(F)c(F)c1` [Compound 112, 3-(4-chlorophenyl)-N-(3,4-difluorophenyl)-N-methylimidazo[1,2-a]pyrazine-6-carboxamide] was tested, and the EC50 [1] was 103 nM.
`COc1cccc(N(C)C(=O)c2cn3c(-c4ccc(C(F)(F)F)cc4)cnc3cn2)n1` [Compound 290, N-(6-methoxypyridin-2-yl)-N-methyl-3-[4-(trifluoromethyl)phenyl]imidazo[1,2-a]pyrazine-6-carboxamide] gave an EC50 [1] of 784 nM.
In the case of `CN(C(=O)c1cn2c(-c3ccc(C(F)(F)F)cc3)cnc2cn1)c1nc2ccccc2s1` [Compound 14, N-(1,3-benzothiazol-2-yl)-N-methyl-3-[4-(trifluoromethyl)phenyl]imidazo[1,2-a]pyrazine-6-carboxamide], the EC50 [1] is reported as 9580 nM.
For `CN(C(=O)c1cn2c(-c3ccc(OC(F)F)cc3)cnc2cn1)c1ccc(Cl)nc1` [Compound 429, N-(6-chloropyridin-3-yl)-3-[4-(difluoromethoxy)phenyl]-N-methylimidazo[1,2-a]pyrazine-6-carboxamide], the EC50 [1] was 313 nM.
With `Cc1cccc(N(C)C(=O)c2cn3c(-c4ccc(C(F)(F)F)cc4)cnc3cn2)n1` [Compound 345, N-methyl-N-(6-methylpyridin-2-yl)-3-[4-(trifluoromethyl)phenyl]imidazo[1,2-a]pyrazine-6-carboxamide] the EC50 [1] was 2300 nM.
For `CN(C(=O)c1cn2c(-c3ccc(C(F)(F)F)cc3)cnc2cn1)c1ccc(N2CCOCC2)cn1` [Compound 321, N-methyl-N-[5-(morpholin-4-yl)pyridin-2-yl]-3-[4-(trifluoromethyl)phenyl]imidazo[1,2-a]pyrazine-6-carboxamide], the EC50 [1] was 2260 nM.
`CN(C(=O)c1cn2c(-c3ccc(C(C)(F)F)cc3)cnc2cn1)c1ccc(C#N)cc1` [Compound 75, N-(4-cyanophenyl)-3-[4-(1,1-difluoroethyl)phenyl]-N-methylimidazo[1,2-a]pyrazine-6-carboxamide] gave an EC50 [1] of 37 nM.
`CN(C(=O)c1cn2c(-c3ccc(-c4nnco4)cc3)cnc2cn1)c1ccc(C#N)cc1` [Compound 240, N-(4-cyanophenyl)-N-methyl-3-[4-(1,3,4-oxadiazol-2-yl)phenyl]imidazo[1,2-a]pyrazine-6-carboxamide] was tested, and the EC50 [1] was 112 nM.
Compound `CN(C(=O)c1cn2c(-c3ccc(-c4cc[nH]n4)cc3)cnc2cn1)c1ccc(C#N)cc1` [Compound 484, N-(4-cyanophenyl)-N-methyl-3-[4-(1H-pyrazol-3-yl)phenyl]imidazo[1,2-a]pyrazine-6-carboxamide] has an EC50 [1] of 20 nM.
`CN(C(=O)c1cn2c(-c3ccc4c(cnn4C)c3)cnc2cn1)c1ccc(C#N)cn1` [Compound 83, N-(5-cyanopyridin-2-yl)-N-methyl-3-(1-methyl-1H-indazol-5-yl)imidazo[1,2-a]pyrazine-6-carboxamide] showed an EC50 [1] of 1570 nM.
Work on `CN(C(=O)c1cn2c(-c3ccc4nn(C)cc4c3)cnc2cn1)c1ccc(C#N)cc1` [Compound 149, N-(4-cyanophenyl)-N-methyl-3-(2-methyl-2H-indazol-5-yl)imidazo[1,2-a]pyrazine-6-carboxamide] yielded an EC50 [1] of 1520 nM.
Work on `Cc1n[nH]c2ccc(-c3cnc4cnc(C(=O)N(C)c5ccc(Cl)nc5)cn34)cc12` [Compound 320, N-(6-chloropyridin-3-yl)-N-methyl-3-(3-methyl-1H-indazol-5-yl)imidazo[1,2-a]pyrazine-6-carboxamide] yielded an EC50 [1] of 2210 nM.
`CN(C(=O)c1cn2c(-c3ccc(OCCN)cc3)cnc2cn1)c1ccc(C#N)cc1` [Compound 372, 3-[4-(2-aminoethoxyl)phenyl]-N-(4-cyanophenyl)-N-methylimidazo[1,2-a]pyrazine-6-carboxamide] gave an EC50 [1] greater than 10000 nM.
